The source of these data is PMC7126861 (Bioorganic & Medicinal Chemistry Letters, 2010).

pIC50: −log10 of the molar value. Where only a bound is given, the exact number is not on record here.

The target in this experiment is SARS-CoV 3CL^pro (Severe acute respiratory syndrome coronavirus, UniProt P0C6X7). In words: biochemical.
As to `N#Cc1c(-c2ccccc2)nc(SCc2ccccc2)[nH]c1=O` [Compound 6a], the pIC50 is below 4.30.
To `N#Cc1c(-c2ccccc2)nc(SCCc2ccccc2)[nH]c1=O` [Compound 6b] belongs below 4.30.
Regarding `COc1ccc(-c2nc(SCc3ccccc3)[nH]c(=O)c2C#N)cc1` [Compound 6d], the negative logarithm of the IC50 (pIC50) is below 4.30.
In turn, `Cc1ccc(-c2nc(SCc3ccccc3)[nH]c(=O)c2C#N)cc1` [Compound 6g] had a pIC50 below 4.30.
In turn, `Cc1ccc(-c2nc(SCCc3ccccc3)[nH]c(=O)c2C#N)cc1` [Compound 6h] had a negative-log IC50 (pIC50) below 4.30.
To `Cc1ccc(-c2nc(SCc3ccc([N+](=O)[O-])cc3)[nH]c(=O)c2C#N)cc1` [Compound 6i] belongs below 4.30.
For the compound `N#Cc1c(-c2cccc([N+](=O)[O-])c2)nc(SCCc2ccccc2)[nH]c1=O` [Compound 6j], the pIC50 is below 4.30.
Regarding `N#Cc1c(-c2cccc(Cl)c2)nc(SCc2ccccc2)[nH]c1=O` [Compound 6n], the negative-log IC50 (pIC50) was below 4.30.
